Measurements taken from ChEMBL document CHEMBL1129186, “Synthesis of new non-nucleoside inhibitors of HIV-1” (Bioorg Med Chem Lett, 1996).

Experiments:
CEM-SS [1] = test: Compound was evaluated for antiviral activity against CEM SS cells infected with HIV-1(LAI strain).; format: functional, cell-based; conditions: Homo sapiens
CEM-SS [2] = test: Compound was evaluated for cytotoxicity against CEM SS cells infected with HIV-1(LAI strain).; format: functional; conditions: Homo sapiens

IC50 (CEM-SS [1])	SMILES	CC50 (CEM-SS [2])
3 µM	CCc1c(C)nc(Cl)c([N+](=O)[O-])c1[S+]([O-])c1cc(C)cc(C)c1 (configuration not stated)	8 µM
6 µM	CCc1c(C)nc(O)c([N+](=O)[O-])c1Sc1cc(C)cc(C)c1	> 10 µM
8 µM	Cc1cc(C)cc(Sc2cc(CCCO)nc(O)c2[N+](=O)[O-])c1	> 1 µM
8 µM	CCc1c(C)nc(Cl)c([N+](=O)[O-])c1Sc1cc(C)cc(C)c1	> 1 µM
1 µM	CC(=O)OCCCc1cc(Sc2cc(C)cc(C)c2)c([N+](=O)[O-])c(O)n1	> 1 µM

SMILES	IC50 (CEM-SS [1])	CC50 (CEM-SS [2])
Cc1cn([C@H]2C[C@H](N=[N+]=[N-])[C@@H](CO)O2)c(=O)[nH]c1=O [ZIDOVUDINE]	3 µM	> 10 µM
